The nature of data set [1]: Pharmacokinetics in male SD rats, single intragastric administration. The class given is in vivo. The conditions noted are these: 5 mg/kg suspension, plasma; for AUC(0-inf) / Cmax / Tmax / half-life: rat, po. Here is the method: (§1) Male SD rats (Beijing Vital River Laboratory Animal Technology Co., Ltd.) were divided into groups of 3 rats each. The rats were subjected to 5 mg/kg suspension of the test sample by single intragastric administration, respectively. Animals were fasted overnight prior to the experiment from 10 h before dosing to 4 h after dosing. Blood was collected 0.25, 0.5, 1, 2, 4, 6, 8, and 24 h after administration. After isoflurane anesthesia using a small animal anesthesia machine, 0.3 mL of whole blood samples was collected from the fundus venous plexus, placed in a heparin anticoagulant tube, and were centrifuged at 4° C., 4000 rpm for 5 min, plasma was transferred to the centrifuge tube, and stored at −80° C. until analysis. Samples in the plasma were extracted using protein precipitation and the extracts were analyzed by LC/MS/MS.
as §1, with “taken through” for “collected from”, “-80°” for “−80°”

The target of the next data set is FGFR-4 kinase (Homo sapiens, UniProt P22455). The experiment in a line: FGFR-4 kinase activity, homogeneous time-resolved fluorescence (HTRF) method. In kind it is biochemical. As to conditions: ATP 25 μM, FGFR-4 kinase 1 nM, read-out: FGFR4 IC50. As to the method:
1. In vitro determination of the protein activity of compounds: The FGFR-4 kinase activity detection platform was established by the homogeneous time-resolved fluorescence (HTRF) method, and the activity of the compound was determined. 1000 μM compounds were subjected to 3-fold gradient dilution in 100% DMSO 11 times (12 concentrations in total), 4 μL diluent from each concentration was added to 96 μL of reaction buffer (50 mM HEPES, pH 7.4, 5 mM MnCl2, 0.1 mM NaVO3, 0.001% Tween-20, 0.01% BAS, 1 mM DTT) and mixed well, as a 4* compound (final concentration of 0.017 nM-1000 nM) for later use. 2 * FGFR-4 kinase (final concentration of 1 nM) was formulated using reaction buffer and 4*substrate (ATP+TK peptide) (TK peptide, HTRF® KinEASETM-TK, purchased from Cisbio, TK peptide, final concentration of 1 μM, ATP final concentration of 25 μ M) was formulated using reaction buffer. 2.5 μL of 4*compound and then 5 μL of 2 * FGFR-4 kinase were added to a 384-well plate (OptiPlate-384, purchased from PerkinElmer), the mixture was mixed by centrifugation, and 2.5 μL of 4 * substrate mixture was added to start the reaction (total reaction volume of 10 µL). The 384-well plate was placed in an incubator 23° C. and stirred for 60 min before the reaction was stopped by the addition of 5 μL of Eu^3+cryptate-labeled anti-phosphotyrosine antibody (TRF® KinEASE™-TK, purchased from Cisbio) and 5 μL of Streptavidin-XL-665 (HTRF® KinEASE™-TK, purchased from Cisbio). After incubation in the incubator for 1 h, fluorescence values (excitation at 320 nm, detecting emitted light at 665 nm and 620 nm, and a ratio of the two as enzyme activity) were read on Envision (purchased from PerkinElmer). The enzyme activity of each compound was measured at 12 concentrations, and the ICso value of the compound was calculated using GraphPad Prism 5.0 software.
The FGFR-4 kinase activity detection platform was established by homogeneous time-resolved fluorescence (HTRF) method, and the activity of compound was determined. 1000 μM compounds were subjected to 3-fold gradient dilution in 100% DMSO 11 times (12 concentrations in total), 4 μL of diluent from each concentration was added to 96 μL of reaction buffer (50 mM HEPES, pH 7.4, 5 mM MnCl2, 0.1 mM NaVO3, 0.001% Tween-20, 0.01% BAS, 1 mM DTT) and mixed well, as a 4* compound (final concentration of 0.017 nM-1000 nM) for later use. 2 * FGFR-4 kinase (final concentration of 1 nM) was formulated using reaction buffer and 4*substrate (ATP+TK peptide)(TK peptide, HTRF® KinEASE™-TK, purchased from Cisbio, TK peptide, final concentration of 1 μM, ATP final concentration of 25 μM) was formulated using reaction buffer. 2.5 μL of 4 * compound and then 5 μL of 2 * FGFR-4 kinase were added to a 384-well plate (OptiPlate-384, purchased from PerkinElmer), the mixture was mixed by centrifugation, and 2.5 μL of 4 * substrate mixture was added to start the reaction (total reaction volume of 10 μL). The 384-well plate was placed in an incubator 23° C. and stirred for 60 min before the reaction was stopped by the addition of 5 μL of Eu^3+cryptate-labled anti-phosphotyrosine antibody (TRF® KinEASE™-TK, purchased from Cisbio) and 5 μL of Streptavidin-XL-665 (HTRF® KinEASE™-TK, purchased from Cisbio). After incubation in the incubator for 1 h, fluorescence values (excitation at 320 nm, detecting emitted light at 665 nm and 620 nm, and a ratio of the two as enzyme activity) were read on Envision (purchased from PerkinElmer). The enzyme activity of each compopund was measured at 12 concentrations, and the ICso value of the compound was calculated using GraphPad prism 5.0 software.
(In general: In TR-FRET formats the signal depends on donor and acceptor labels being close together.)

The subject of data set [2] is Human hepatoma cells Hep3b. The data set can be described thus: Cell proliferation inhibition, Cell Titer-Glo. In kind it is cell-based. The conditions noted are these: Hep3B, 72 h. As to the method: 2. Determination of cell proliferation activity of compounds:
Cell Titer-Glo ® detection reagent from Promega was used to establish the suspension cell proliferation inhibition screening method. Human hepatoma cells Hep3b (Xiehe Cell Research Center) were cultured in 25 cm^2 or 75 cm^2 plastic tissue culture flasks (Corning®) filled with MEM (Gibco®) medium supplemented with 10% fetal bovine serum (Hyclone®) under 37° C., 95% air and 5% CO2, and subcultured 2-3 times a week.
(§2) Hep3b cells were seeded in a 96-well cell culture plate (Corning®) at a density of 3×10^3 cells/well, […], and cultured under 37° C., 95% air, and 5% CO2. After 24 h the test compound was added: 10 mM compounds (dissolved in DMSO) were subjected to 3-fold gradient dilution in DMSO , […] of diluent from each concentration was added to […] of serum-free medium, and finally […] of compound diluted in the medium was added to the plate seeded with cells. The final concentration of DMSO in the cell culture medium was 0.1% and the final concentration of the test compound was 0.3 nM-[…]. The above cells were incubated for 3 days under 37° C.
After 3 days, the cell viability assay was performed by the Cell Titer-Glo (Promega) kit, and finally, the inhibitory concentration 50% of the compound on cell proliferation, i.e. the IC 50 value, was calculated by the GraphPad Prism 5.0 program.
as §2, with “DMSO,” for “DMSO ,”, “finally,” for “finally”, “of” for “of the”
After 3 days, the cell viability assay was performed by the Cell Titer-Glo (Promega) kit, and finally the inhibitory concentration 50% of the compound on cell proliferation, i.e. the IC 50 value, was calculated by the GraphPad Prism 5.0 program.
(Cellular ATP, detected with luciferase, serves as a proxy for viable cell number.)

The next data set concerns FGFR1-4. As to conditions: background art; equally high-efficiency inhibition of FGFR1-4; cited from earlier work.
Where [3] appears, read: first PK table, read-out: T1/2 (converted).
[4] abbreviates: second PK table, read-out: T½ (converted).

Like-named read-outs stand apart in the source and are kept apart here.

FGFR-4 kinase, sequence (P22455 22-802): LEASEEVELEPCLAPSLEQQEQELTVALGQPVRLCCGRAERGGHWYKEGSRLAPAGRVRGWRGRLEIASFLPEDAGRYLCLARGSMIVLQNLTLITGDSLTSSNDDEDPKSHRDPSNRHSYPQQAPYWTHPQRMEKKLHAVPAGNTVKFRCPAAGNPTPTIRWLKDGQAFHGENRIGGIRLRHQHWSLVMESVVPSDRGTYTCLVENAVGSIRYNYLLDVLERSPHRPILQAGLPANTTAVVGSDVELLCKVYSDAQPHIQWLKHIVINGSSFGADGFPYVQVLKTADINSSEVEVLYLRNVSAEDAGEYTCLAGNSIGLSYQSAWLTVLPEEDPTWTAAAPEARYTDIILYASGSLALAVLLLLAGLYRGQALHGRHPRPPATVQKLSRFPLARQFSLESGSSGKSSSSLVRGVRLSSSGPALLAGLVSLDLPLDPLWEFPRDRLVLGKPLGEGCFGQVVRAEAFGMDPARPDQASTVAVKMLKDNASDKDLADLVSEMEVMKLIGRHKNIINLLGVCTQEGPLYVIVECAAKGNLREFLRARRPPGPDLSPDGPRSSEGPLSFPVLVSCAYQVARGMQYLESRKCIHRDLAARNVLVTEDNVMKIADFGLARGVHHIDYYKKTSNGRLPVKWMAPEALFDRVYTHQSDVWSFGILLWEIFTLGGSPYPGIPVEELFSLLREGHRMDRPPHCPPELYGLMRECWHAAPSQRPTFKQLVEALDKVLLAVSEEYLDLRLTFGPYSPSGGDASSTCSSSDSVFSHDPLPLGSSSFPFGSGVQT

Usually AUC(0-inf) stands for total exposure, with the tail of the curve extrapolated. The Cmax is the highest concentration seen after dosing. A word on the Tmax: it is the time from dosing to the highest level. One may read the IC50 as the midpoint of a concentration-inhibition curve. Turning to `C=CC(=O)N[C@H]1CCOC[C@H]1Nc1ncc2cc(-c3c(Cl)c(OC)cc(OC)c3Cl)ccc2n1` [Blu-554, reference compound], the “T½” value in data set [1] (second PK table) turned out to be 1.64 h. Moreover, in data set [1] (first PK table), the AUC(0-inf) amounted to 1680 ng·h/mL. In data set [1] (first PK table), this compound came in with a Cmax of 362 ng/mL. Further, the Tmax in data set [1] (first PK table) was found to be 2.67 h. Further, the half-life in data set [1] (setting [3]) was 1.64 h. Also, the IC50 on FGFR-4 kinase (Table 1) came to 7.49 nM; at FGFR-4 kinase (Table 2), 2.21 nM; in data set [2] (Table 1, 3 days incubation), 162 nM; in data set [2] (Table 2, 3 days incubation), 66.1 nM.
As for `C=CC(=O)Nc1cc(-c2cc3c(cn2)cc(-c2c(Cl)c(OC)cc(OC)c2Cl)c2nccn23)c(OC)cc1N1C2CCC1COC2` [Example 6, N-(2-(3-oxa-8-azabicyclo[3 .2.1]octan-8-yl)-5-(4-(2,6-dichloro-3,5-dimethoxyphenyl)imidazo[1,2-a][1,6]naphthyridin-8-yl)-4-methoxyphenyl)acrylamide], in data set [1] (first PK table), the AUC(0-inf) was 2560 ng·h/mL, the Cmax is 236 ng/mL and the Tmax stood at 6 h. For the same compound, the half-life in data set [1] (setting [3]) was 11.5 h. This compound came in with an IC50 in data set [2] (Table 1, 3 days incubation) of 58.3 nM.
Turning to `C=CC(=O)Nc1cc(-c2cc3c(cn2)cc(-c2c(Cl)c(OC)cc(OC)c2Cl)c2nccn23)c(OC)cc1N1CCN(C2CC2)CC1` [Example 59], in data set [1] (second PK table), the AUC(0-inf) amounted to 3940 ng·h/mL, the highest level (Cmax) was 505 ng/mL and the Tmax turned out to be 2.67 h. In data set [1] (setting [4]), the half-life is 3.97 h. Besides, the IC50 on FGFR-4 kinase (Table 2) was 1.1 nM. The same compound registered an IC50 in data set [2] (Table 2, 3 days incubation) of 63.2 nM.
Consider `C=CC(=O)Nc1cc(-c2cc3c(cn2)cc(-c2c(Cl)c(OC)cc(OC)c2Cl)c2nccn23)c(OC)cc1N1C[C@@H]2C[C@H]1CO2` [Example 61, N-(2-((1S,4S)-2-oxa-5-azabicyclo[2.2.1]heptan-5-yl)-5-(4-(2,6-dichloro-3,5-dimethoxyphenyl)imidazo[1,2-a][1,6]naphthyridin-8-yl)-4-methoxyphenyl)acrylamide], for which, in data set [1] (second PK table), the AUC(0-inf) is 3050 ng·h/mL, the peak level (Cmax) was 561 ng/mL and the time to peak (Tmax) was 1.17 h. Further, the half-life in data set [1] (setting [4]) was 2.6 h. The IC50 at FGFR-4 kinase (Table 2) is 1.7 nM. For the same compound, in data set [2] (Table 2, 3 days incubation), the 50% inhibitory concentration (IC50) is 121 nM.
On to `C=CC(=O)Nc1cc(-c2cc3c(cn2)cc(-c2c(Cl)c(OC)cc(OC)c2Cl)c2nccn23)c(OC)cc1N1CCC2(CCOC2)C1` (stereo not shown) [Example 62, N-(5-(4-(2,6-dichloro-3,5-dimethoxyphenyl)imidazo[1,2-a][1,6]naphthyridin-8-yl)-4-methoxy-2-(2-oxa-7-azaspiro[4, 4]nonan-7-yl)phenyl)acrylamide], for which, in data set [1] (second PK table), the AUC(0-inf) worked out at 1120 ng·h/mL, the Cmax worked out at 175 ng/mL and the Tmax was determined as 5.33 h. Further, in data set [1] (setting [4]), the half-life was 4.93 h. In addition, the IC50 at FGFR-4 kinase (Table 2) worked out at 2.4 nM. Also, 43.8 nM corresponded to half-maximal inhibition in data set [2] (Table 2, 3 days incubation) (IC50).
For the compound `COc1cc(OC)cc(N(CCNC(C)C)c2ccc3ncc(-c4cnn(C)c4)nc3c2)c1` [JNJ-42756493], the “IC50 on FGFR1-4” value with FGFR1-4 is recorded as “single-digit nanomolar level”.
For `C[C@@H](Oc1ccc2[nH]nc(/C=C/c3cnn(CCO)c3)c2c1)c1c(Cl)cncc1Cl` [LY2874455], the “IC50 on FGFR1-4” value with FGFR1-4 was “single-digit nanomolar level”.

Values taken from patent US20220185811A1, “FGFR4 KINASE INHIBITOR AND PREPARATION METHOD THEREFOR AND USE THEREOF” (SHOUYAO HOLDINGS (BEIJING) CO., LTD., priority 2019, published 2022).
